Reference: US8461328B2, “Tricyclic heterocyclic compounds, compositions and methods of use thereof” (Genentech, Inc., priority 2010, dated 2013)
pKi: −log10 of the molar value. Structures can show the parent of a compound that is named as a salt.

Assays:
Type in all cases: biochemical
JAK3 = target: T1, JAK3 (Homo sapiens, UniProt P52333); experiment: JAK3 inhibition (Table 4); conditions: read-out: JAK3 Ki
T1 construct: made in house; host or cells: SF9 insect cells (baculovirus)

JAK2 = target: T2, JAK2 (Homo sapiens, UniProt O60674); experiment: JAK2 inhibition (Table 4); conditions: read-out: JAK2 Ki
T2 construct: made in house; host or cells: SF9 insect cells (baculovirus)
T2 sequence (O60674 812-1132): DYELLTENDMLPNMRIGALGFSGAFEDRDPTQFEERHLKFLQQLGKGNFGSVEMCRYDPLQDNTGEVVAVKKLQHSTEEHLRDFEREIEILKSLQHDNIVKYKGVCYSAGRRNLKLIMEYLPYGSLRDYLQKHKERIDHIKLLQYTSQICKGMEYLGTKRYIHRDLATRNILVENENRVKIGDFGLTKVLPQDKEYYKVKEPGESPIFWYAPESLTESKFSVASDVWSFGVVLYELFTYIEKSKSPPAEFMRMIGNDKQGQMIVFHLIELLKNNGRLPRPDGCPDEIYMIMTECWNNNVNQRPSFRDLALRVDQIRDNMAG

TYK2 = target: T3, TYK2 (Homo sapiens, UniProt P29597); experiment: TYK2 inhibition (Table 4)
T3 construct: made in house; host or cells: SF9 insect cells (baculovirus)
T3 sequence (P29597 873-1187): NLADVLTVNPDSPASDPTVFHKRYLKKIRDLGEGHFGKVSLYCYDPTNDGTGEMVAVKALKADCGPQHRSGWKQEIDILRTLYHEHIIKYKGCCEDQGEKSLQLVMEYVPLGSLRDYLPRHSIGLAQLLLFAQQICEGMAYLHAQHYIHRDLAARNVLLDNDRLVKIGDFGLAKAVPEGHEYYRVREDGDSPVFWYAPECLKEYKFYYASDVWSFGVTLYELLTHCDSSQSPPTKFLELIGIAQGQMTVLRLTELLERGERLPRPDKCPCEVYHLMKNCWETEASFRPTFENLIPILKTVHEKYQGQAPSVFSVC

JAK1 = target: T4, JAK1 (Homo sapiens, UniProt P23458); experiment: JAK1 inhibition (Table 4); conditions: read-out: JAK1 Ki
T4 construct: made in house; host or cells: SF9 insect cells (baculovirus)
T4 sequence (P23458 852-1154): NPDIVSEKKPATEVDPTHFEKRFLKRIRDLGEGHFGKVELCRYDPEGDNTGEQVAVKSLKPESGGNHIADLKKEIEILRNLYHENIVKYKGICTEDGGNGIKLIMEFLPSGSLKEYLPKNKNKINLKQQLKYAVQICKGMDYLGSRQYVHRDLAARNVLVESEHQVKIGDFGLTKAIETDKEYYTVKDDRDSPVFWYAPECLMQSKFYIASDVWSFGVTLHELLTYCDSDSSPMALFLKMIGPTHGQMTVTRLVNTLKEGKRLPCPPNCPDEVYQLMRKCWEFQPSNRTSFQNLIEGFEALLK

T1 sequence (P52333 783-1124): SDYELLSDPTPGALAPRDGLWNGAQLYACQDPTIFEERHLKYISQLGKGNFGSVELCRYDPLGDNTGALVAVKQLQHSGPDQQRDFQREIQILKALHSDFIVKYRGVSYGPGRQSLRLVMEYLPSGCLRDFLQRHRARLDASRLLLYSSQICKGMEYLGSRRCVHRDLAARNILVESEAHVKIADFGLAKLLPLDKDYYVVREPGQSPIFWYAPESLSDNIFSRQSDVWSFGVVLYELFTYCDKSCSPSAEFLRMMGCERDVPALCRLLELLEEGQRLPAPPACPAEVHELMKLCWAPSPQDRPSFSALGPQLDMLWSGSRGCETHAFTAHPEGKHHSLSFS

Row | Structure (SMILES) | pKi (JAK3) | pKi (JAK2) | pKi (TYK2) | pKi (JAK1)
1 | O=C(N[C@H]1CC[C@H](n2cnc3cnc4[nH]ccc4c32)CC1)C1CC1 [Example 572, trans Cyclopropanecarboxylic acid [4-(6H-1,3,5,6-tetraaza-as-indacen-1-yl)-cyclohexyl]-amide] | 6.70 | 7.57 | 6.92 | 7.94
2 | COCCC(=O)N[C@H]1CC[C@H](n2cnc3cnc4[nH]ccc4c32)CC1 [Example 573, trans 3-Methoxy-N-[4-(6H-1,3,5,6-tetraaza-as-indacen-1-yl)-cyclohexyl]-propionamide] | 7.16 | 7.97 | 7.04 | 8.34
3 | Cc1nc2cnc3[nH]ccc3c2n1C1(C)CCN(S(C)(=O)=O)CC1 [Example 580, 1-(1-Methanesulfonyl-4-methyl-piperidin-4-yl)-2-methyl-1,6-dihydro-1,2,3,5,6-tetraaza-as-indacene] | 7.23 | 7.89 | 7.38 | 8.84
4 | Cc1nc2cnc3[nH]ccc3c2n1C1(C)CCN(CCC#N)CC1 [Example 581, 3-[4-Methyl-4-(2-methyl-6H-1,2,3,5,6-tetraaza-as-indacen-1-yl)-piperidin-1-yl]-propionitrile] | 6.55 | 6.94 | 6.56 | 7.57
5 | CC1(n2nnc3cnc4[nH]ccc4c32)CCN(S(=O)(=O)c2cccnc2)CC1 [Example 584, 1-[4-Methyl-1-(pyridine-3-sulfonyl)-piperidin-4-yl]-1,6-dihydro-1,2,3,5,6-pentaaza-as-indacene] | 5.88 | 6.98 | 6.34 | 7.43
6 | C[C@@H](O)c1nc2cnc3[nH]ccc3c2n1C1(C)CCN(S(C)(=O)=O)CC1 [Example 585, (R)-1-[1-(1-Methanesulfonyl-4-methyl-piperidinyl)-1,6-dihydro-1,2,3,5,6-tetraaza-as-indacen-2-yl]-ethanol] | 7.05 | 7.20 | 7.17 | 8.02
7 | NCC(F)(F)c1nc2cnc3[nH]ccc3c2n1C1CCN(Cc2cccnc2)CC1 [Example 588, 2,2-Difluoro-2-[1-(1-pyridin-3-ylmethyl-piperidin-4-yl)-1,6-dihydro-1,2,3,5,6-tetraaza-as-indacen-2-yl]-ethylamine] | 8.24 | 7.88 | 6.23 | 8.24
8 | Cc1nc2cnc3[nH]ccc3c2n1[C@H]1CC[C@H](NC(C)CC#N)CC1 (stereo partly drawn) [Example 590, Trans 3-[4-(2-methyl-6H-1,2,3,5,6-tetraaza-as-indacen-1-yl)-cyclohexylamino]-butyronitrile] | 7.77 | 7.87 | 7.37 | 8.56
9 | Cc1nc2cnc3[nH]ccc3c2n1[C@H]1CC[C@H](NCC(F)(F)F)CC1 [Example 591, Trans[4-(2-methyl-6H-1,2,3,5,6-tetraaza-as-indacen-1-yl)-cyclohexyl]-(2,2,2-trifluoro-ethyl)-amine] | 7.89 | 8.73 | 8.60 | 9.19
10 | COCCNC(=O)N(C)[C@H]1CC[C@H](n2cnc3cnc4[nH]ccc4c32)CC1 [Example 592, Trans 3-(2-Methoxy-ethyl)-1-methyl-1-[4-(6H-1,2,3,5,6-tetraaza-as-indacen-1-yl)-cyclohexyl]-urea] | 6.46 | 7.81 | 6.67 | 7.92
11 | O=C(N[C@H]1CC[C@H](n2cnc3cnc4[nH]ccc4c32)CC1)N1CCOCC1 [Example 593, Trans Morpholine-4-carboxylic acid [4-(6H-1,2,3,5,6-tetraaza-as-indacen-1-yl)-cyclohexyl]-amide] | 6.50 | 7.44 | 6.40 | 7.57
12 | Cc1nc2cnc3[nH]ccc3c2n1[C@H]1CC[C@H](N2CCNC2=O)CC1 [Example 598, Trans 1-[4-(2-methyl-6H-1,2,3,5,6-tetraaza-as-indacen-1-yl)-cyclohexyl]-imidazolidin-2-one formic acid salt] | 7.92 | 8.08 | 7.34 | 8.14
13 | O=C(N[C@H]1CC[C@H](n2c(CO)nc3cnc4[nH]ccc4c32)CC1)OCC1CC1 [Example 601, Trans[4-(2-hydroxymethyl-6H-1,2,3,5,6-tetraaza-as-indacen-1-yl)-cyclohexyl]-carbamic acid cyclopropylmethyl ester] | 6.95 | 7.24 | 6.83 | 8.41
14 | O=C1OC(CO)CN1[C@H]1CC[C@H](n2cnc3cnc4[nH]ccc4c32)CC1 (stereo partly drawn) [Example 602, Trans 5-hydroxymethyl-3-[4-(6H-1,2,3,5,6-tetraaza-as-indacen-1-yl)-cyclohexyl]-oxazolidin-2-one] | 7.25 | 8.62 | 7.89 | 8.78
15 | Cc1nc2cnc3[nH]ccc3c2n1[C@H]1CC[C@H](NC(=O)N(C)C)CC1 [Example 604, Trans 1,1-dimethyl-3-[4-(2-methyl-6H-1,2,3,5,6-tetraaza-as-indacen-1-yl)-cyclohexyl]-urea] | 6.60 | 7.34 | 6.61 | 7.79

Continued, values first:

Row | pKi (JAK3) | pKi (JAK2) | pKi (TYK2) | pKi (JAK1) | Structure (SMILES)
16 | 7.22 | 7.31 | 7.19 | 8.54 | N#CCN1CCC(N[C@H]2CC[C@H](n3cnc4cnc5[nH]ccc5c43)CC2)CC1 [Example 568, trans {4-[4-(6H-1,3,5,6-Tetraaza-as-indacen-1-yl)-cyclohexylamino]-piperidin-1-yl}-acetonitrile]
17 | 6.35 | 7.02 | 6.60 | 7.90 | CC(C)CN[C@H]1CC[C@H](n2cnc3cnc4[nH]ccc4c32)CC1 [Example 569, trans Isobutyl-[4-(6H-1,3,5,6-tetraaza-as-indacen-1-yl)-cyclohexyl]-amine]
18 | 6.94 | 8.00 | 7.11 | 7.95 | O=C(N[C@H]1CC[C@H](n2cnc3cnc4[nH]ccc4c32)CC1)c1ccncc1 [Example 570, trans N-[4-(6H-1,3,5,6-Tetraaza-as-indacen-1-yl)-cyclohexyl]-isonicotinamide]
19 | 6.69 | 7.47 | 7.35 | 8.14 | Cn1cncc1CN[C@H]1CC[C@H](n2cnc3cnc4[nH]ccc4c32)CC1 [Example 575, trans (3-Methyl-3H-imidazol-4-ylmethyl)-[4-(6H-1,3,5,6-tetraaza-as-indacen-1-yl)-cyclohexyl]-amine]
20 | 5.87 | 6.32 | 6.48 | 6.97 | CC1(n2cnc3cnc4[nH]ccc4c32)CCN(C(=O)CC#N)CC1 [Example 579, 3-[4-Methyl-4-(6H-1,2,3,5,6-tetraaza-as-indacen-1-yl)-piperidin-1-yl]-3-oxo-propionitrile]
21 | 6.23 | 6.44 | 5.98 | 6.99 | CC1(n2nnc3cnc4[nH]ccc4c32)CCN(CCC#N)CC1 [Example 582, 3-[4-Methyl-4-(6H-1,2,3,5,6-pentaaza-as-indacen-1-yl)-piperidin-1-yl]-propionitrile]
22 | 6.44 | 7.50 | 6.76 | 8.36 | CC1(n2nnc3cnc4[nH]ccc4c32)CCN(S(C)(=O)=O)CC1 [Example 583, 1-(1-Methanesulfonyl-4-methyl-piperidine-4-yl)-1,6-dihydro-1,2,3,5,6-pentaaza-as-indacen-1-yl]
23 | 7.63 | 8.80 | 8.01 | 8.96 | CC(C)(C#N)CN1CCC(n2cnc3cnc4[nH]ccc4c32)CC1 [Example 586, 2,2-Dimethyl-3-[4-(6H-1,2,3,5,6-tetraaza-as-indacen-1-yl)-piperidin-1-yl]-propionitrile]
24 | 8.08 | 8.67 | 8.10 | 9.21 | Cc1nc2cnc3[nH]ccc3c2n1C1CCN(CC(F)(F)F)CC1 [Example 587, 2-Methyl-1-[1-(2,2,2-trifluoro-ethyl)-piperidin-4-yl]-1,6-dihydro-1,2,3,5,6-tetraaza-as-indacene]
25 | 7.01 | 7.54 | 6.73 | 7.98 | COCCNC(=O)O[C@H]1CC[C@H](n2cnc3cnc4[nH]ccc4c32)CC1 [Example 595, Trans (2-methoxy-ethyl)-carbamic acid 4-(6H-1,2,3,5,6-tetraaza-as-indacen-1-yl)-cyclohexyl ester]
26 | 6.73 | 7.58 | 6.92 | 8.11 | CC(=O)NCCOC(=O)N[C@H]1CC[C@H](n2cnc3cnc4[nH]ccc4c32)CC1 [Example 599, Trans[4-(6H-1,2,3,5,6-tetraaza-as-indacen-1-yl)-cyclohexyl]-carbamic acid 2-acetylamino-ethyl ester]
27 | 6.76 | 7.64 | 7.68 | 8.56 | COC(=O)N[C@H]1CC[C@H](n2c(CO)nc3cnc4[nH]ccc4c32)CC1 [Example 600, Trans[4-(2-hydroxymethyl-6H-1,2,3,5,6-tetraaza-as-indacen-1-yl)-cyclohexyl]-carbamic acid methyl ester]
28 | 6.63 | 7.68 | 7.06 | 8.01 | CN(C)C(=O)N[C@H]1CC[C@H](n2cnc3cnc4[nH]ccc4c32)CC1 [Example 603, Trans 1,1-dimethyl-3-[4-(6H-1,2,3,5,6-tetraaza-as-indacen-1-yl)-cyclohexyl]-urea]
